According to paper PMC6348443 (Journal of Medicinal Chemistry, 2018):
Where a name gives a salt, the structure may show the parent alone. Read-outs that look alike come from different tables or passages of the source.

Columns and labels:
[1] = molecular target: T1, MOR (Homo sapiens, UniProt P35372); assay: competition radioligand binding, CHO cell membranes expressing human MOR, [3H]DAMGO
T1 construct: host or cells: CHO (CHO-hMOR)

[2] = system: male CD1 mice; assay: acetic acid-induced writhing assay after sc administration; type: in vivo, mouse; conditions: for ED50: Mus musculus, 0.5 h, read-out: ED50 (95% CI), mice, sc, inhibition of writhing 30 min after drug administration
[3] = molecular target: T2, MOR (Rattus norvegicus, UniProt P33535); assay: competition radioligand binding, rat brain membranes, [3H]DAMGO; conditions: for Ki: rat brain membranes, read-out: opioid receptor binding Ki MOR
T2 construct: Membranes were prepared from Sprague-Dawley rat brains or guinea-pig brains according to the described procedures; tissue Labortierkunde und Laborgenetik, Medizinische Universität Wien; host or cells: Sprague-Dawley rat brain without cerebella

[4] = molecular target: T3, DOR (Rattus norvegicus, UniProt P33533); assay: competition radioligand binding, rat brain membranes, [3H][Ile5,6]deltorphin II; conditions: for Ki: rat brain membranes, read-out: opioid receptor binding Ki DOR
T3 construct: Membranes were prepared from Sprague-Dawley rat brains or guinea-pig brains according to the described procedures; tissue Labortierkunde und Laborgenetik, Medizinische Universität Wien; host or cells: Sprague-Dawley rat brain without cerebella
T3 sequence (P33533 whole entry): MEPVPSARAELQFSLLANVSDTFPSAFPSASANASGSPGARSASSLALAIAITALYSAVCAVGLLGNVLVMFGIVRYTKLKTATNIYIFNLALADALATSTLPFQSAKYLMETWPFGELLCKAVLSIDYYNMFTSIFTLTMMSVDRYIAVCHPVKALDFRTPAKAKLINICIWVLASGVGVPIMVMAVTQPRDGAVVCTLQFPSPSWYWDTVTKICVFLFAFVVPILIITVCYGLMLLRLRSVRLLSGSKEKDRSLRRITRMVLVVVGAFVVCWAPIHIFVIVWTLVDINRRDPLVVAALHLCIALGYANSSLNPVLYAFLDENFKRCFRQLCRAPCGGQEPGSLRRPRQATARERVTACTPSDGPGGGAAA

T2 sequence (P33535 whole entry): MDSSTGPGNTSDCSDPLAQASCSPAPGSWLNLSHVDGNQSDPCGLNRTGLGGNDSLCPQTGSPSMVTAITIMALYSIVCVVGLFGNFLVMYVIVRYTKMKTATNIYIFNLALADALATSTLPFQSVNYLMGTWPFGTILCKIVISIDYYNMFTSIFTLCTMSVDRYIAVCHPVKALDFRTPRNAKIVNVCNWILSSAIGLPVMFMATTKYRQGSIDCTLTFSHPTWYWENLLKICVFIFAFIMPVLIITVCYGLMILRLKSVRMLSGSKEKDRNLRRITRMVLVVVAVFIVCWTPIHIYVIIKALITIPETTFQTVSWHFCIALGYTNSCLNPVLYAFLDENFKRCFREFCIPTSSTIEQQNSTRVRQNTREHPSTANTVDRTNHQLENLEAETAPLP
T1 sequence (P35372 whole entry): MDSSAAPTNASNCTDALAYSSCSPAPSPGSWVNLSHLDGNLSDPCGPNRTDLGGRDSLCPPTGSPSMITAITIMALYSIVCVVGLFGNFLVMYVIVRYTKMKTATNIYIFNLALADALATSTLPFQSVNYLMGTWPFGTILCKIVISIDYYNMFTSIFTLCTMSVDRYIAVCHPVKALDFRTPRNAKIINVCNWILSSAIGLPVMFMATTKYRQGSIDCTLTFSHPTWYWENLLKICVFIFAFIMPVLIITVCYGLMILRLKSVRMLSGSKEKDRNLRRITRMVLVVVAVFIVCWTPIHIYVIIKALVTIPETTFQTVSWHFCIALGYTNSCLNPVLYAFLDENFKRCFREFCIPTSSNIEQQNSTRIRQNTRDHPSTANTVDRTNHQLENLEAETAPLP

Row | Structure (SMILES) | Ki [1] | ED50 [2] | ED50 (95% CI) ([2]; mice, inhibition of writhing 30 min after drug administration) | Ki ratio MOR/DOR/KOR ([3]; from Ki in rat (MOR, DOR) and guinea-pig (KOR) brain membranes) | DOR/MOR selectivity ratio ([3]; from Ki in rat brain, for 1 from Ki of ref 44) | Ki [3] | Ki [4] | decreased DOR affinity vs 6β analogue ([4]; rat brain, 18a vs 18b, 19a vs 19b) | Ki ([1]; CHO cell membranes expressing human MOR, read-out: Ki MOR) | higher antinociceptive potency than morphine ([2]; writhing assay, mice) | increase in MOR binding affinity vs comparator ([3]; rat brain, 17b vs 4b, 16a/b vs 7a/b, 22a/b vs 7a, 7b and 9b, 14a vs 14b)
1 | CC[C@H](N[C@H]1CC[C@@]2(OC)[C@H]3Cc4ccc(O)c5c4[C@@]2(CCN3C)[C@H]1O5)C(=O)O [Compound 19a, (2S)-2-[(4,5α-Epoxy-3-hydroxy-14β-methoxy-17-methylmorphinan-6α-yl)amino]-2-ethylacetic Acid Dihydrochloride] | 0.95 ± 0.13 nM | < 0.02 mg/kg | 17.5 (5.13–59.6) μg/kg | 1/49/189 | 49 | 0.76 ± 0.19 nM | 37.5 ± 3.4 nM | 29 times |  |  | 
2 | CO[C@@]12CC[C@H](N[C@H](C(=O)N[C@@H](Cc3ccc(O)cc3)C(=O)O)C(C)C)[C@@H]3Oc4c(O)ccc5c4[C@@]31CCN(C)[C@@H]2C5 [Compound 22a, (2S)-2-[[(4,5α-Epoxy-3-hydroxy-14β-methoxy-17-methylmorphinan-6α-yl)amino]-(2S)-3-methylbutyrylamino]-3-(4-hydroxyphenyl)propionic Acid] |  | 0.178 mg/kg |  |  |  | 0.82 ± 0.13 nM | 1.19 ± 0.42 nM |  | 1.29 ± 0.13 nM | 2.5 times | 4 to 7 times
